Assay results from US20150011566A1, “N-PHENYLPIPERAZINE DERIVATIVES THAT ARE ANTAGONISTS OF A1A, A1D ADRENOCEPTORS AND 5-HT1A RECEPTORS FOR THE TREATMENT OF BENIGN PROSTATE HYPERPLASIA, PHARMACEUTICAL COMPOSITIONS CONTAINING THE SAME” (UNIVERSIDADE FEDERAL DO RIO DE JANEIRO-UFRJ, priority 2012, published 2015).
Where a name gives a salt, the structure may show the parent alone. Marks after values point to notes of the source that are not given here.

How the values were obtained:
[1] = target: T1, 5-HT1A receptors (Rattus norvegicus, UniProt P19327); assay: Binding of [3H]p-MPPF with GTP to 5-HT1A receptors; intrinsic activity (Ki low/Ki high); conditions: Table 13; from Ki low/Ki high
T1 construct: Intrinsic Activity at Native 5-HT1A Receptors; from tissue; host or cells: rat hippocampus membranes
T1 sequence (P19327 1-422): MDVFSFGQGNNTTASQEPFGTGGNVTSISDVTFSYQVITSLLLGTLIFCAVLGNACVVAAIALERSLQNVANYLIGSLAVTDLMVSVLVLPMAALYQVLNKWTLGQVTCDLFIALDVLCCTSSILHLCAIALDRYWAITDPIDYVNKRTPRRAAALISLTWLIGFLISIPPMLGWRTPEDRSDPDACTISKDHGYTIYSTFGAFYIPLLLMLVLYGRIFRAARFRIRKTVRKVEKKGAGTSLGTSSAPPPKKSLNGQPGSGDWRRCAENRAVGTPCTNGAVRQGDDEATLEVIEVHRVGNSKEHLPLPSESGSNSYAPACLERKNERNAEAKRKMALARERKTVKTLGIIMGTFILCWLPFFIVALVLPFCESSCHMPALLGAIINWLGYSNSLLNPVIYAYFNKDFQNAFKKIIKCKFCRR
Experimental: Membrane preparations of rat hippocampus according to previously described by HALL et al (1985) and PEROUTKA (1986) were performed. The homogenization and centrifugation steps were performed identically to that described above for receptors α2A and 5-HT2A receptors.
The binding assays for the 5-HT1A receptors were performed as described previously in the literature and previously standardized in the laboratory through saturation experiments. […] (solvent for dilution of LDT's) for the determination of total binding, or 50 μL non-radioative serotonin at 10 μM to determine the non-specific binding (final volume of 500 μL). Assays were performed in triplicate. […] Assays were performed in triplicate.
After the incubation period, the reaction was stopped by adding 4 ml of ice-cold solution containing 5 mM Tris (pH 7.4), followed by vacuum filtration on glass fiber filter (GMF 3, Filtrak®) previously soaked with solution 0.5% polyethylenoimine. The filters were washed three times with 4 mL of ice-cold solution containing 5 mM Tris (pH 7.4) under vacuum to remove all free radioligand. Then the filters were dried and placed in vials containing 5 ml scintillation fluid (composition: 4% PPO, 0.1% POPOP w/p in toluene). The radioactivity retained on the filters was then determined in a liquid scintillation counter (Packard Tri-Carb 1600 TR). […] For these receptors were also determined the […] and Ki parameters.
The GTP presence displaces the GPCR to a state of low affinity (Lahti et al, 1992). The intrinsic activity of a substance can be estimated using GPCR agonist or antagonist radioligand appropriate to define the affinity of the substance in the state of high and low affinity receptor, respectively.

[2] = target: T2, 5-HT1A receptors (Homo sapiens, UniProt P08908); assay: Cell proliferation in vitro, DU-145 cells stimulated with 5-HT (MTT); type: cell-based; conditions: 48 h
T2 construct: endogenous in cells; host or cells: DU-145
T2 sequence (P08908 1-422): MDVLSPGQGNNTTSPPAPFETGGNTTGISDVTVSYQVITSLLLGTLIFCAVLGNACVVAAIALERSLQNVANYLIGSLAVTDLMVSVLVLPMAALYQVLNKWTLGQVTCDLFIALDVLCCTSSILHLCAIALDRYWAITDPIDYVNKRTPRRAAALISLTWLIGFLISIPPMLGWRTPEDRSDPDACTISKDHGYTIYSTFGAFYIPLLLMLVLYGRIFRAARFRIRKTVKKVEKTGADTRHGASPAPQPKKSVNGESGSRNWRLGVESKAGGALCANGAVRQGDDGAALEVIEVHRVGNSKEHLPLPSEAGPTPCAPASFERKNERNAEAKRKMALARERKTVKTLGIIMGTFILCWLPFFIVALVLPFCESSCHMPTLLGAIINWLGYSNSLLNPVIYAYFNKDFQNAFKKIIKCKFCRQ
Experimental: (§1) Human prostate cancer cells (DU-145) were cultured in medium (RPMI 1640) until confluence. Then the cells were dissociated, plated (5×10^3 cells/well) and maintained in medium free of fetal bovine serum for 24 hours. […] Cell proliferation was assessed by using the MTT technique (MOSMANN, T. Immunol Methods. 16; 65 (1-2):55-63, 1983).

[3] = target: T3, α1D receptors (Homo sapiens, UniProt P25100); assay: Cell proliferation in vitro, DU-145 cells stimulated with phenylephrine (MTT); type: cell-based; conditions: 48 h
T3 construct: endogenous in cells; host or cells: DU-145
T3 sequence (P25100 1-572): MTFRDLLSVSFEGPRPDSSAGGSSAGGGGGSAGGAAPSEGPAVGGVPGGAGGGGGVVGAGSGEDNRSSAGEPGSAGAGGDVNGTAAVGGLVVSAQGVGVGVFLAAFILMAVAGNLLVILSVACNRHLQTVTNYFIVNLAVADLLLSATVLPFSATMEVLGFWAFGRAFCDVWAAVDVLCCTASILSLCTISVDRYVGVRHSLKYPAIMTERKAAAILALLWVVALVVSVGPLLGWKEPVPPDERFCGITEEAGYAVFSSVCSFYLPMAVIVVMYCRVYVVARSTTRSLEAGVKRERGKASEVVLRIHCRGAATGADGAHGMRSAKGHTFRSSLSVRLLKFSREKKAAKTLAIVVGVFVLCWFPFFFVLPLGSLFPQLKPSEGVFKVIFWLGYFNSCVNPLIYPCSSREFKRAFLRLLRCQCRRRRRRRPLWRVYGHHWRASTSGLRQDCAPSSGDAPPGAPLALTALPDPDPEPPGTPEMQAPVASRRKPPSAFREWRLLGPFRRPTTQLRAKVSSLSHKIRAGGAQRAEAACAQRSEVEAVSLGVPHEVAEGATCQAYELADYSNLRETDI
Experimental: as §1

[4] = target: T4, α1D adrenoceptors (Rattus norvegicus, UniProt P23944); assay: Phenylephrine-induced contraction inhibition in rat aorta (isometric contraction, Schild KB); type: cell-based; conditions: ratio of EC50 in presence and absence of test substance, 10 nM
T4 construct: the rat thoracic aorta corresponds to a tissue expressing mainly α1D-adrenoceptors; from tissue; host or cells: rat thoracic aorta rings
T4 sequence (P23944 1-561): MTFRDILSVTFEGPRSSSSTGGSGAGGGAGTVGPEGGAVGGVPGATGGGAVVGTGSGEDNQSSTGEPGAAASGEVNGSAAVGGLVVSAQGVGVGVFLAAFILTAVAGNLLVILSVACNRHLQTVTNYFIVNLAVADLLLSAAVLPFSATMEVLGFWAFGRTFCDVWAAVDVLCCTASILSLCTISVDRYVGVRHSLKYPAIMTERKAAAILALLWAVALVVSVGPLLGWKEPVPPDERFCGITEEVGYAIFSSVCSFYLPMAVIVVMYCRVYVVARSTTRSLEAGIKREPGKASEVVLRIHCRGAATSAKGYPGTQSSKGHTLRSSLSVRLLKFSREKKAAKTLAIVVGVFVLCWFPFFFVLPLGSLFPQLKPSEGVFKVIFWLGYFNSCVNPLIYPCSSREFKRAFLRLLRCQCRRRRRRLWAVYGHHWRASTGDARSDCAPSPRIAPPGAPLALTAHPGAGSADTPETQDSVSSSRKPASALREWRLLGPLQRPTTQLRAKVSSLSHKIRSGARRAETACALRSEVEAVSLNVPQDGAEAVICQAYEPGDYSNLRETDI
Experimental: Isometric contraction assays were performed using Male Wistar rats, aged 2.5-3 months euthanized as described above. The thoracic aorta (tissue enriched in functional α1D adrenergic receptors) was removed, free from adjacent connective and adipose tissues cut in 3 mm segments. […] The aort segments were then subjected to a preload of 20 mN per 60 minutes. After recovery of tissues maintained for 1 hour at rest, it was performed a contraction induced by phenylephrine (PE) 1 μM (α1 adrenergic receptors selective agonist). In this plateau contraction, in order to promote endothelium-dependent relaxation resulting from the activation of the enzyme endothelial nitric oxide synthase (eNOS) and subsequent release of nitric oxide (NO), acetylcholine 1 μM was added. Rings that relaxed at least 80% were considered to have intact endothelium, were used.
Then the preparation was washed and allowed to stand for 1 hour in order to recover the tissue. Then it was performed cumulative curves to phenylephrine (10^−9 to 10^−5 M) in the presence of propranolol 1 μM (β-adrenoceptor blocker receptors) before and after incubation for 1 hour of the LDT's at 10 or 50 nM. In parallel, a temporal control was performed to rule out any artifacts on the measured contraction, where was added only the vehicle (ultrapure water Milli Q®) instead of the substance to be tested. Strictly following the same protocol as the other tanks wherein it was added the LDT's.
The data were scanned in MacLab 8S system connected to the isometric tension transducer Grass FT-03, which recorded the voltage variation in milinewtons (mN) generated throughout the analysis. The digitized data were then analyzed by Chart 3.4/s software program (MacLab, Inc., USA). In the pharmacological screening process, the initial concentration of the used LDT's was 50 nM, which is considered as cut concentration, i.e., substances that have no effect at this concentration would not investigated in this test. […] The ratio of the EC50 value in these two conditions (with and without LDT) matches the third parameter, called “concentration ratio” (or RC).
log(CR−1)=log [B]−log KB (Equation 1)
Where CR=concentration ratio (EC′50/EC50); [B]=‘B’ antagonist concentration; KB=equilibrium dissociation constant of the antagonist ‘B’.
With this in view, the functional tests of contraction in isolated organ model were performed using these tissues. […] Similarly, targeting to rule out any artifacts on the measured contraction, a time control was performed where only the vehicle was added (ultrapure Mili Q® water) in place of the substance to be tested, strictly following the same protocol as the other vats were added to the LDT's (FIG. 1).

[5] = target: T5, α2A receptors (Rattus norvegicus, UniProt P22909); assay: Binding of [3H]RX821002 to α2A receptors (rat cortex membranes); conditions: saturation assay
T5 construct: Membrane preparations of rat cortex as described previously in the literature were performed; from tissue; host or cells: rat cortex membranes
T5 sequence (P22909 1-465): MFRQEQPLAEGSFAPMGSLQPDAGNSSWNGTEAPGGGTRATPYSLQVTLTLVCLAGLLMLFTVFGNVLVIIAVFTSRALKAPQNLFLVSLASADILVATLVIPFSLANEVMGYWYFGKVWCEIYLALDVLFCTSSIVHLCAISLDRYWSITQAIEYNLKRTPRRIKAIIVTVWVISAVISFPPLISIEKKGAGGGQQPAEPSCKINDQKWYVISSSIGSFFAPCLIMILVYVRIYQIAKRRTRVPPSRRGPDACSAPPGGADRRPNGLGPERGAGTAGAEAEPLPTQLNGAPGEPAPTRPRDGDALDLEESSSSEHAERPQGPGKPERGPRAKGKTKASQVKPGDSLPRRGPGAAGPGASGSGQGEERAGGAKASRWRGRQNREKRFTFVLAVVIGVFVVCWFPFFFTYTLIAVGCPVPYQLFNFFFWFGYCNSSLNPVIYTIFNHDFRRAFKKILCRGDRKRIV

[6] = test system: prostate cells; conditions: DIZEYI et al. Prostate 59 (3): 328-336, 2004; cited from earlier work

Cl.NCCc1c[nH]c2ccc(O)cc12 [5-HT, 5-hydroxytryptamine hydrochloride]
pharmacological classification [1]: full antagonist
Proliferation percentage in relation to basel (100%), 5-HT1A ([2]; DU-145, stimulus alone, 5-HT 1 μM): 137.1 ± 5.2%

COc1ccccc1N1CCN(CCN2C(=O)CC3(CCCC3)CC2=O)CC1 [BMY7378, reference compound]
Proliferation percentage in relation to basel (100%) in the presence of LDT's, α1D ([3]; DU-145, phenylephrine 3 μM + test substance 50 nM): 90.98 ± 11.7^a %
CR ± EPM [4]: 4.4 ± 0.8

CNC[C@H](O)c1cccc(O)c1 [Phenylephrine, (R)-(−)-phenylephrine hydrochloride, reference compound]
Proliferation percentage in relation to basel (100%), α1D ([3]; DU-145, stimulus alone, phenylephrine 3 μM): 138.8 ± 2.6%

COC1(C2=NCCN2)COc2ccccc2O1 (centres unmarked) [[3H] RX821002]
Kd [5]: 2.05 ± 0.28 nM

COc1ccccc1N1CCN(CCN(C(=O)c2ccc(F)cc2)c2ccccn2)CC1 [p-MPPF, reference compound]
Proliferation percentage in relation to basel (100%) in the presence of LDT's, 5HT1A ([2]; DU-145, 5-HT 1 μM + test substance 50 nM): 88.9 ± 11.5^b %

CCOc1ccccc1OCCN[C@H](C)Cc1ccc(OC)c(S(N)(=O)=O)c1 [tamsulosin]
inhibition of cell proliferation [6]: does not inhibit cell proliferation
